In US20220288051A1, “METHODS FOR TREATING CANCER USING SERIAL ADMINISTRATION OF E3 UBIQUITIN LIGASE DEGRADERS” (Dana-Farber Cancer Institute, Inc., priority 2019, published 2022):
Entries after “also recorded” stand apart in the source; their conditions may differ.

What was measured:
MM.1S-Cas9+ cells = experiment: Genome-scale CRISPR/Cas9 gene editing (LOF) resistance screens; type: cell-based, human; settings: for sgRNA enrichment in resistant cells, long-term screen: long-term treatment, NGS of sgRNAs; for sgRNA enrichment, extended degronimid treatment: Thal-SNS-032-resistant MM.1S cells, additional 2 weeks
Procedure: MM.1S cells transduced with lentiviral construct for SpCas9 were kindly provided from Quinlan Sievers (Ebert Lab, BWH/DFCI). MM.1S cells were also transduced with lentiviral construct for dCas9-VP64 (purchased from Addgene).
ii. Lentiviral transductions with sgRNA libraries: For the screen with the GECKOv2 sgRNA library, tumor cell transductions were performed in batches of 8×10^7 cells per sub-library for each replicate. Cells were incubated for 16 hrs in cell medium containing polybrene (2 μg/mL; Santa Cruz Biotechnology), 10 mM HEPES (pH 7.4) (Sigma-Aldrich) and viral prep (4 mL) diluted to achieve an MOI of 0.4. After the end of the incubation with the viral preps, cells were washed and incubated for an additional day. Transduced cells were cultured at an initial density of 1×10^6 cells/mL and were treated with puromycin (1 μg/mL) for up to 14 days immediately after transduction. After puromycin selection, MM.1S-Cas9^+ cells transduced with each GeCKOv2 sublibrary were plated at 60×10^6 cells per flask (T175, 100 mL) to enable coverage of ˜1000× and were sub-cultured at four to five-day intervals to prevent confluence. At each passage, cells were harvested, washed with PBS (Corning, N.Y.), pelleted (5000 rpm, 5 min, 4° C.) and frozen as cell pellets (−80° C.) for next generation sequencing, and also replated at 60×10^6 cells to maintain 1000× coverage.
For the genome-scale screens with the Brunello sgRNA library, tumor cell transductions were performed in batches of 5×10^7 cells per library for six replicates. Cells were incubated (18 h) in cell medium containing polybrene (5 μg/mL; Santa Cruz Biotechnology), 10 mM HEPES (pH 7.4) (Sigma-Aldrich) and viral prep (30 mL) diluted 1:1. Transduced cells were cultured at an initial density of 1×10^6 cells/mL and were treated with puromycin (1 μg/mL) for up to 5 days additional two days from transduction. After stable transduction, pooled MM.1S cells were plated at 40×10^6 cells per flask (T175, 100 mL) to enable coverage of 500× and were sub-cultured at three- to four day intervals to prevent confluence. At each passage, cells were harvested, washed with PBS (Corning), pelleted (5000 rpm, 5 min, 4° C.) and frozen as cell pellets (−80° C.) for next generation sequencing, and also replated at 40×10^6 cells (˜500× coverage).
iii. […] Following treatments, all cells were serially cultured without drug and allowed to regrow for as long as required to enable reseeding (60×10^6 cells per flask, 100 mL) and retreatment with individual drugs while maintaining ˜1000× coverage throughout. Concomitant with retreatment, remaining cells were frozen (−80° C.; 20% FBS/DMSO) for later analysis or assessed for drug resistance/sensitivity using CTG assays. Between treatments, and in order to maintain the health of cultures, dead cells were periodically removed using Ficoll centrifugation (1,500 rpm for 10-20 min). For all CRISPR drug treatment experiments, aliquots of MM.1S-Cas9+ cells transduced with the GeCKO(Sanjana et al., 2014; Shalem et al., 2014) or Brunello (Doench et al., 2016) sgRNA libraries were frozen immediately prior to experimentation to determine the baseline distribution of sgRNAs in the cell population.
For “long-term” treatment screens with Thal-SNS-032-, ARV-771- and MZ-1-resistant cells, we continuously treated MM.1S-Cas9+ cells (40×10^6, —500× coverage) transduced with the Brunello sgRNA library (4 weeks post-puromycin selection) with either each compound's (IC20) or vehicle control. Cells were serially passaged every 3-4 days to prevent confluence, each time replating at ˜500× coverage (100 mL) at the same time replenishing each compound or vehicle. Drug treatments were paused if cell numbers fell below 10×10^6 per flask, allowing cells to recover and regrow, and treatments were resumed at a lower concentration when cell numbers reached 40×10^6. At each passage, cells were assayed for drug sensitivity/resistance using CTG. […]

MM.1S Cas9+ cells = experiment: Dose-response assay of cells with individual sgRNA knock-outs, CTG; type: cell-based, human
Procedure: Non-targeting control sgRNAs and COPS7B sgRNAs were from GeCKOv2. Four sgRNAs were generated per each gene, except from COPS7B, for which 6 sgRNAs were available (Table S2). All sgRNAs were synthesized by CustomArray Inc (Bothell, Wash.). Cloning was performed according to the protocol published by Zhang et al. (media.addgene.org/cms/filer_public/4f/ab/4fabc269-56e2-4ba5-92bd-09dc89c1e862/zhang_lenticrisprv2_and_lentiguide_oligo_cloning_protocol_1.pdf) using a pHKO9 vector. Briefly, to clone the sgRNA guide sequence, plasmids were digested with BsmBI (New England Biolabs, Ipswich, Mass.) at 55° C. for 1 hour. Oligonucleotides for each sgRNA guide sequence were annealed and phosphorylated using T4 Ligation Buffer and T4 polynucleotide kinase (New England Biolabs) at 37° C. for 30 minutes and then annealed by heating to 95° C. for 5 minutes and cooling to 25° C. at 1.5° C./minute. Using T4 ligation buffer and T4 ligase (New England Biolabs), annealed oligos were ligated into gel purified vectors (Qiagen) at 65° C. for 10 minutes. 2.5 ug of the ligation product were transformed in 30 uL E. coli electrocompetent cells (Lucigen E.cloni 10 G ELITE PLUS, Invitrogen). Subsequently, 500 uL of transformed cells were plated on LB Agar-AmpR (ThermoFisher Scientific) and incubated overnight at 37° C. Three colonies per plate were then picked and inoculated in a mini-prep culture (Qiagen). The product was then digested with BsmBI and XhoI (New England Biolabs) at 37° C. for 1 h and compared to the uncut control on 1% agarose gel. One out of three colonies (10 uL) was then precultured in 3 mL LB Broth-AmpR and shaken at 37° C. for 6 h. Afterwards it was transferred to a 250 mL LB Broth-AmpR flask and incubated overnight at 37° C. Each culture was then inoculated into a maxiprep culture (Qiagen).
Also, CRBN, VHL, TCEBJ, TCEB2, UBE2R2 and FBXW2 sgRNA are selected from Brunello library and cloned using pLVX-hyg-sgRNA1 Vector system (Takara Bio USA, CA) according to the manufacturer's manual. b(takarabio.com/assets/documents/User %20Manual/Lenti-X_CRISPR-Cas9_System_User_Manual_121316.pdf)
ii. Lentiviral transductions with constructs for individual sgRNAs: 500×10^3 to 1×10^6 MM.1S Cas9 cells were plated in 50 uL of complete RPMI1640 medium per well in a 24-well plate, and additional 100 uL of complete RPMI1640 medium were added to cover the well completely. Cells were incubated in cell medium containing polybrene (5 to 8 μg/mL; Santa Cruz Biotechnology), and viral prep. 24 hours after addition of viral preps, media were changed and, after another 48 h, puromycin selection (1 to 2 ug/ml per well) was started. After 7 days of puromycin selection, transduced MM.1S Cas9+ cells were collected and expanded in T75 flasks.
iii. […] In the case of Thal-SNS-032 or ARV771, cells are plated 384-well plate and treated each concentration described at figure and viability assays were performed at 72 hrs.

Row | SMILES | sgRNA enrichment in resistant cells, long-term screen (MM.1S-Cas9+ cells) | activity against cells with sgRNAs against CRBN (MM.1S Cas9+ cells; MM.1S cells) | response of cells with sgRNAs against COPS7B or COPS8 (MM.1S Cas9+ cells; compared to parental MM.1S cells) | sgRNA enrichment, extended degronimid treatment (MM.1S-Cas9+ cells) | Thal-SNS-032 responsiveness after individual sgRNAs (MM.1S Cas9+ cells; sgRNAs for COPS7B, COPS2, DDB1 or COPS8) | response to dBET6 after individual sgRNAs (MM.1S Cas9+ cells; sgRNAs for COPS7B, COPS8 or CRBN)
1 | Cc1ncsc1-c1ccc([C@H](C)NC(=O)[C@@H]2C[C@@H](O)CN2C(=O)[C@@H](NC(=O)COCCCOCCNC(=O)C[C@@H]2N=C(c3ccc(Cl)cc3)c3c(sc(C)c3C)-n3c(C)nnc32)C(C)(C)C)cc1 [ARV-771] | enrichment of sgRNAs for CUL2, VHL itself | no significant changes in ARV771 activity | decreased response | – | – | –
2 | CC(C)(C)c1cnc(CSc2cnc(NC(=O)C3CCN(CC(=O)NCCOCCOCCOCCNc4cccc5c4C(=O)N(C4CCC(=O)NC4=O)C5=O)CC3)s2)o1 (stereo not drawn) [Thal-SNS-032] | pronounced enrichment of sgRNAs for CRBN itself, and COP9 signalosome complex genes | – | – | CRBN is the only gene which exhibits enrichment of its sgRNAs; also recorded: further enrichment of MM cells containing sgRNA against CRBN | decrease the Thal-SNS-032 responsiveness | –
3 | Cc1sc2c(c1C)C(c1ccc(Cl)cc1)=N[C@@H](CC(=O)NCCCCCCCCNC(=O)COc1cccc3c1C(=O)N(C1CCC(=O)NC1=O)C3=O)c1nnc(C)n1-2 (stereo partly drawn) [dBET6] | significant enrichment of sgRNAs targeting CRBN itself, as well as other components or regulators of the cullin-RING ligase (CRL) complex | – | – | CRBN is the only gene which exhibits enrichment of its sgRNAs; also recorded: further enrichment of MM cells containing sgRNA against CRBN | – | decreases the response of MM.1S cells to dBET6
